Measurements reported in PMC3986099, “Development of a Radioiodinated Triazolopyrimidine Probe for Nuclear Medical Imaging of Fatty Acid Binding Protein 4” (PLoS ONE, 2014).

How the values were obtained:
his-tagged FABP4 [1] = molecular target: T1, his-tagged FABP4 (Homo sapiens, UniProt P15090); experiment: Competition binding assay with 1,8-ANS as tracer
T1 construct: purchased Cayman Chemical Company
Experimental: In accordance with previous reports, competition binding experiments were performed using 8-anilino-1-naphthalene sulfonic acid (1,8-ANS) as the tracer. Briefly, a mixture containing 0.12 ml phosphate buffer (50 mM, pH = 7.4), 0.03 ml TAP1 (2.6 mM–300 nM) in DMSO, 0.075 ml 1,8-ANS (24 nM) in phosphate buffer (0.2% ethanol, v/v) and 0.075 ml his-tagged FABP4 (1 µM) in phosphate buffer was incubated at room temperature for 5 min. […] The inhibition constants (K i) were calculated using the Cheng-Prusoff equation: K i = IC50/(1+[L]/K d), where [L] is the 1,8-ANS concentration and K d is the 1,8-ANS dissociation constant.

[2] = tested on: 3T3-L1 preadipocytes and differentiated adipocytes; experiment: Cell uptake study in adipocytes and preadipocytes; format: cell-based, Murine; conditions: concentration-dependent, 0-100 μM
Experimental: Murine 3T3-L1 preadipocytes were obtained from ATCC and cultured in Dulbecco's Modified Eagle Medium (Nissui Pharmaceutical Co., Ltd.) supplemented with 10% heat-inactivated fetal bovine serum, 50 U/ml penicillin and 50 μg/ml streptomycin at 37 °C in 5% CO2. For cell uptake assay, differentiation of 3T3-L1 cells was performed as described previously. Briefly, two days after confluence, the medium was replaced with DMEM containing 10% FBS and inducers ([…], 10 μg/ml insulin, 0.5 mM 3-isobutyl-1-methylxanthine and 10 μM pioglitazone hydrochloride) for 2 days. The medium was then changed to DMEM supplemented with 10% FBS, 10 μg/ml insulin and 10 μM pioglitazone hydrochloride, and then incubated for 2 days. Then, the medium was changed to DMEM supplemented with 10% FBS and 10 μM pioglitazone hydrochloride every other day. After 8-10 days, the differentiated adipocytes were used for experiments.
For the cell uptake study using adipocytes, the medium of 24-well plate, in which the differentiated adipocytes or undifferentiated 3T3-L1 cells are cultured, was removed. […] Following the measurement of the radioactivity of collected cell lysate with a well-type γ-counter, protein determination was performed. […] Binding ratios were calculated as (radioactivity in collected cells)/(total applied radioactivity)/(protein abundance) x 100 (%Dose/mg protein).

[3] = tested on: differentiated THP-1 cells; experiment: Cell uptake study and inhibition assay; format: cell-based, Human; conditions: 4 °C, 3 hr
Experimental: Human monocytic leukemia THP-1 cells were obtained from ATCC and rat glioma C6 cells were from the Health Science Research Resources Bank. THP-1 cells were cultured in Gibco RPMI 1640 medium (Nissui Pharmaceutical Co., Ltd.) supplemented with 10% heat-inactivated fetal bovine serum (Nichirei Bioscience Inc.), 50 U/ml penicillin and 50 µg/ml streptomycin (Nacalai Tesque, Inc.) at 37 °C in 5% CO2. C6 cells were cultured in McCoy's 5A Modified Medium supplemented with 10% heat-inactivated fetal bovine serum, 50 U/ml penicillin and 50 µg/ml streptomycin at 37 °C in 5% CO2. For cell uptake assays, THP-1 monocytes were differentiated into macrophages by incubation with 100 nM phorbol 12-myristate 13-acetate for 24 hr.
For the cell uptake study, tubes were pre-incubated with 50 mg/ml skim milk in PBS (-) at 4 °C for 3 hr. Then, 0.4 ml of differentiated THP-1 cells (1.0×10^6 cells/tube) in PBS (-) and 0.05 ml [^125I]TAP1 in PBS (-) (0.008 MBq, 5% ethanol, v/v) were added to the tubes, and the cells were incubated at 4 °C for 3 hr. […] The radioactivity of the tubes was measured with a well-type γ-counter. […] Binding ratios were calculated as (radioactivity in tubes)/(total applied radioactivity)/(protein abundance) ×100 (%Dose/mg protein). […] After incubation at 4 °C for 3 hr, the radioactivity measurement and calculation of the binding ratio were performed as described above. […]

his-tagged FABP4 [4] = molecular target: T1, his-tagged FABP4; experiment: Selectivity binding assay with FABP immobilized on Ni-NTA magnetic agarose beads
Experimental: For the selectivity binding assay, his-tagged FABP3 (0.75 mg/ml), FABP4 (0.75 mg/ml) and FABP5 (0.70 mg/ml) in 50 mM phosphate buffer containing 100 mM NaCl (20% glycerol, v/v, pH = 7.2) were used. Immobilization was performed following the manufacturer's procedures. Each solution of his-tagged FABP3 ([…], 1.5 µg), FABP4 (0.002 ml, 1.5 µg) or FABP5 (0.002 ml, 1.4 µg) was incubated with 0.02 ml Ni-NTA Magnetic Agarose Beads (Qiagen) and 0.5 ml protein binding buffer (50 mM NaH2PO4, 300 mM NaCl, 10 mM imidazole, pH = 8.0) at room temperature for 1 hr. After supernatant removal, protein binding buffer with 1% BSA was added, and the mixture was incubated at room temperature for 30 min. After removal of the supernatant, 0.4 ml of interaction buffer (50 mM NaH2PO4, 300 mM NaCl, 10 mM imidazole, and 0.005% Tween, v/v, pH = 8.0) and 0.05 ml [^125I]TAP1 (0.01 MBq) in interaction buffer (5% ethanol, v/v) were added. For measurement of non-specific binding, 0.05 ml of nonradioactive TAP1 in interaction buffer (5% ethanol, v/v, 11.3 µM) was added with the [^125I]TAP1. After incubation at room temperature for 2 hr, the supernatants were removed, and the beads washed with interaction buffer (5% ethanol, v/v). The radioactivity of beads in the tubes was measured with a well-type γ-counter (1480 Wizard3, PerkinElmer Japan Co., Osaka, Japan). Binding ratios were calculated as (radioactivity of beads)/(total applied radioactivity)/(protein abundance on beads)×100 (%Dose/µg protein).

[5] = Parallel artificial membrane permeation assay (PAMPA); format: in vitro ADME; conditions: room temperature, read-out: permeability (PAMPA)
Experimental: The permeability of TAP1 was measured using a pre-coated PAMPA plate system (BD Biosciences) following the manufacturer's procedures. Briefly, TAP1 (100–200 µM, 0.2 ml) was added to donor plate and PBS (-) (0.2 ml) was added to the acceptor plate in the PAMPA plate assembly. After coupling both plates together and incubating at room temperature for 5 hr, 0.15 ml of the sample was obtained from each plate and 0.15 ml of the original compound solution was also obtained. Then, the absorbance of each sample was measured at 280 nm. The permeability was calculated as: Pe (cm/s) = (−ln[1−CA/Cequilibrium])/St (1/VD+1/VA) and Cequilibrium = [CDVD+CAVA]/(VD+VA). CD = C0 (AD−Abuffer)/(A0−Abuffer) and CA = C0 (AA−Abuffer)/(A0−Abuffer). C0 is the concentration of the start sample and A0, Abuffer, AD and AA are absorbances of the starting sample, buffer, donor and acceptor, respectively. VD and VA are the donor and acceptor volumes, respectively. S is the membrane area and t is the incubation time.

T1 sequence (P15090 whole entry): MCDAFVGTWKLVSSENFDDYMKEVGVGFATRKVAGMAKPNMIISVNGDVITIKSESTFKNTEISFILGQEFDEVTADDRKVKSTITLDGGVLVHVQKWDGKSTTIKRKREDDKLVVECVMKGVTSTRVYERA

Row | Kd (his-tagged FABP4 [1]) [nM] | FABP4 binding relative to FABP3 (his-tagged FABP4 [4]; FABP4 over FABP3) | FABP4 binding relative to FABP5 (his-tagged FABP4 [4]; FABP4 over FABP5) | Ki (his-tagged FABP4 [1]; competition with 1,8-ANS, FABP4) [nM] | Papp at 5 h [5] [×10⁻⁶ cm/s] | Structure (SMILES) | inhibition of [^125I]TAP1 uptake into adipocytes [2] | inhibition of [^125I]TAP1 uptake into differentiated THP-1 cells [3]
1 | 1200 |  |  |  |  | O=S(=O)(O)c1cccc2cccc(Nc3ccccc3)c12 [1,8-ANS, 8-anilino-1-naphthalene sulfonic acid, reference compound] |  | 
2 |  |  |  |  |  | CCc1c(-c2ccccc2)c(-c2ccccc2)nn1-c1ccccc1-c1cccc(OCC(=O)O)c1 [BMS309403, reference compound] | significantly inhibited | significantly inhibited
3 |  | more than 10 fold | more than 10 fold | 44.5 ± 9.8 | 12.6 ± 2.9 | O=c1cc(COc2cccc(I)c2)[nH]c2nc(-c3ccccc3)nn12 [TAP1, 5-{(3-Iodophenoxy)methyl}-2-phenyl-[1], [2], [4]triazolo[1,5-a]pyrimidin-7(4H)-one] |  | significantly inhibited
